Measurements reported in PubChem BioAssay (NCI).
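Grown in 96-well plates, cells were treated for 48 hours with each compound at five concentrations. Insufficient inhibition: endpoint recorded as highest concentration tested. TGI marks complete inhibition of growth.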

Key:
Assay in all cases: NCI tumour cell line growth inhibition, 48 h
UACC-62 melanoma = tested on: UACC-62 melanoma
PC-3 prostate = tested on: PC-3 prostate
SNB-19 CNS = tested on: SNB-19 CNS
DU-145 prostate = tested on: DU-145 prostate
MALME-3M melanoma = tested on: MALME-3M melanoma
OVCAR-4 ovarian = tested on: OVCAR-4 ovarian
MOLT-4 leukemia = tested on: MOLT-4 leukemia
SF-295 CNS = tested on: SF-295 CNS
NCI-H522 lung = tested on: NCI-H522 lung
COLO 205 colon = tested on: COLO 205 colon
SR leukemia = tested on: SR leukemia
RXF 393 renal = tested on: RXF 393 renal
KM12 colon = tested on: KM12 colon
MCF7 breast = tested on: MCF7 breast
HCT-15 colon = tested on: HCT-15 colon
OVCAR-5 ovarian = tested on: OVCAR-5 ovarian
NCI-H23 lung = tested on: NCI-H23 lung
HL-60(TB) leukemia = tested on: HL-60(TB) leukemia
SF-268 CNS = tested on: SF-268 CNS
K-562 leukemia = tested on: K-562 leukemia
OVCAR-8 ovarian = tested on: OVCAR-8 ovarian
SK-MEL-2 melanoma = tested on: SK-MEL-2 melanoma
NCI/ADR-RES ovarian = tested on: NCI/ADR-RES ovarian
MDA-N = tested on: MDA-N
SN12C renal = tested on: SN12C renal
UO-31 renal = tested on: UO-31 renal
SW-620 colon = tested on: SW-620 colon
U251 CNS = tested on: U251 CNS
SK-OV-3 ovarian = tested on: SK-OV-3 ovarian
SNB-75 CNS = tested on: SNB-75 CNS
OVCAR-3 ovarian = tested on: OVCAR-3 ovarian
T-47D breast = tested on: T-47D breast
MDA-MB-231 breast = tested on: MDA-MB-231 breast
HT29 colon = tested on: HT29 colon
HCT-116 colon = tested on: HCT-116 colon
HOP-62 NSCLC = tested on: HOP-62 NSCLC
SK-MEL-28 melanoma = tested on: SK-MEL-28 melanoma
A549 NSCLC = tested on: A549 NSCLC
EKVX NSCLC = tested on: EKVX NSCLC
SK-MEL-5 melanoma = tested on: SK-MEL-5 melanoma
NCI-H226 lung = tested on: NCI-H226 lung
UACC-257 melanoma = tested on: UACC-257 melanoma
HCC-2998 colon = tested on: HCC-2998 colon
SF-539 CNS = tested on: SF-539 CNS
HOP-92 NSCLC = tested on: HOP-92 NSCLC
CCRF-CEM leukemia = tested on: CCRF-CEM leukemia
HS 578T breast = tested on: HS 578T breast
MDA-MB-435 = tested on: MDA-MB-435
786-0 renal = tested on: 786-0 renal
BT-549 breast = tested on: BT-549 breast
RPMI-8226 leukemia = tested on: RPMI-8226 leukemia
LOX IMVI melanoma = tested on: LOX IMVI melanoma
ACHN renal = tested on: ACHN renal
IGROV1 ovarian = tested on: IGROV1 ovarian
M14 melanoma = tested on: M14 melanoma
TK-10 renal = tested on: TK-10 renal
NCI-H460 lung = tested on: NCI-H460 lung

Measured: TGI

CCOC(=O)C(=O)C(=O)NN(C)C1=NCCN1
> 100 µM: UACC-62 melanoma | PC-3 prostate | SNB-19 CNS | DU-145 prostate | MALME-3M melanoma | OVCAR-4 ovarian | MOLT-4 leukemia | SF-295 CNS | NCI-H522 lung | COLO 205 colon | SR leukemia | RXF 393 renal | KM12 colon | MCF7 breast | HCT-15 colon | OVCAR-5 ovarian | NCI-H23 lung | HL-60(TB) leukemia | SF-268 CNS | K-562 leukemia | OVCAR-8 ovarian | SK-MEL-2 melanoma | NCI/ADR-RES ovarian | MDA-N | SN12C renal | UO-31 renal | SW-620 colon | U251 CNS | SK-OV-3 ovarian | SNB-75 CNS | OVCAR-3 ovarian | T-47D breast | MDA-MB-231 breast | HT29 colon | HCT-116 colon | HOP-62 NSCLC | SK-MEL-28 melanoma | A549 NSCLC | EKVX NSCLC | SK-MEL-5 melanoma | NCI-H226 lung | UACC-257 melanoma | HCC-2998 colon | SF-539 CNS | HOP-92 NSCLC | CCRF-CEM leukemia | HS 578T breast | MDA-MB-435 | 786-0 renal | BT-549 breast | RPMI-8226 leukemia | LOX IMVI melanoma | ACHN renal | IGROV1 ovarian | M14 melanoma | TK-10 renal | NCI-H460 lung
